According to article PMC7409197, “Adenosine Receptors as Neuroinflammation Modulators: Role of A1 Agonists and A2A Antagonists” (Cells, 2020):

How the values were obtained:
Type in all cases: cell-based, rat
[1] = test system: mixed glial cells; test: MTS cell viability in cytokine cocktail (CK) inflammatory model, mixed glial cells
Method: (§1) Newborn male Wistar rats were sacrificed and mixed glial cell cultures were obtained from the cerebral cortices. Cerebral cortices were dissected, and meninges were cleared away. Tissues were treated with trypsin solution (trypsin 0.05% (w/v) trypsin-EDTA 5 mM) for 25 min at 37 °C. The tissue was fully disaggregated by pipetting and the dissociated cells were seeded in a 6-well plate with Dulbecco’s modified Eagle’s/High glucose medium enriched with 100 U/mL penicillin, 100 µg/mL streptomycin and 10% FBS. Fresh medium was changed the next day and then every 3 days decreasing the quantity of FBS. All experiments were carried out after 7–9 days of plating.
(§2) Mixed glial cell cultures were divided into 2 groups, one to study A1AR partial agonists and another for A2AAR antagonists. Cells from the first group were pre-treated with 2 µL at three different concentrations of C1 for 15, 30 or 60 min and then with further addition of a pro-inflammatory cocktail of cytokines (TNF-α, 20 ng/mL; IL-1β, 20 ng/mL; IFN-γ 20 ng/mL) for 48 h. […] To study C2 cells were pre-treated with the same CK cocktail for 48 h and then with 2 µL of C2 at three different concentrations for 15, 30, or 60 min (Scheme 1). ZM241385, a well known A2AAR antagonist, was used as reference compound. Furthermore, ligands and CK were tested alone for 15, 30 or 60 min and 48 h respectively.
(§3) 1.7 × 10^4 mixed glial cells were cultured in 98 μL of the specific medium in a 96 well plate overnight. The next day 2 μL of ligand or CK cocktail were added to the well. After all treatments, 20 µL of CellTiter 96® AQueous One Solution Reagent was added in a final volume of 100 µL. Absorbance was read at 490 nm using the plate reader GENiosPro. Cell viability was calculated as percentage using the following formula: Cell viability =OD mean of treated cells/OD mean of control cells × 100

[2] = test system: mixed glial cells; test: CellTiter 96 AQueous One (MTS) cell viability, ligands alone, mixed glial cells
Method: as §1, §2, §3

[3] = test system: mixed glial cells; test: Griess assay (nitrite production) in mixed glial cells; conditions: 10 nM, 30 min, after CK cocktail
Method: To test the antioxidant capacity of these new molecules Griess assay was performed. The Griess Reagent System is based in the conversion of sulphanilamide into an azo-compound with the presence of N-1-napthylenediamide dihydrochloride (NED) under acidic condition. 1.7 × 10^4 mixed glial cells were cultured in 98 μL of the specific medium in a 96 well plate overnight. After 24 h the media from each well of the cell culture was transferred into a 96 well plate and then 50 µL of the sulphanilamide solution was added to each well. After 5–10 min of incubation at room temperature (rt), 50 µL of the NED Solution were dispensed to all wells and they were incubated at rt for other 5–10 min. Absorbance was measured within 30 min in the plate reader GENiosPro with a filter between 520 nm and 550 nm. This experiment was performed 3–5 replicates. Concentration of NO¬¬¬¬2¯ in each sample was determined by comparison to a Nitrite standard reference curve.

Structure (SMILES) | prevention of CK aggression (cell viability, words) ([1]; pre-treatment before CK cocktail 48 h, C1 2-30 µM, CCPA 10 nM 30 min) | cell viability vs. control ([2]; ligand alone, 5, 10, 60 nM, 15, 30, 60 min) | cell viability vs. control ([1]; CK cocktail 20 ng/mL 48 h, then ligand 10 nM for 30 min) | cell viability vs. control ([2]; ligand alone, 10 nM, time not stated at the place (highest effect at 30 min)) | nitrite levels in presence of CK cocktail [3]
OC[C@H]1O[C@@H](n2cnc3c(NC4CCCC4)nc(Cl)nc32)[C@H](O)[C@@H]1O [CCPA, 2-chloro-N^6-cyclopentyladenosine, reference compound] | prevent the CK aggression | did not change cell viability significantly | – | – | –
Nc1nc(NCCc2ccc(O)cc2)nc2nc(-c3ccco3)nn12 [ZM241385, reference compound] | – | – | 136 ± 1.7% | 135 ± 3.5% | able to decrease NO¬¬¬¬2¯ levels induced by CK more than the well know ZM241385
